The supplement of paper PMC10307832

Assays:
Assay in all cases: relative viability (nuclei count vs DMSO), 5 days (fraction); higher = more cells survive
[1] = compound: C1CNCCC1C2=CC(=NN2)C3=CC=NC=C3 + C[C@]1(O)C[C@@H](c2nc(-c3ccc4ccc(-c5ccccc5)nc4c3)c3c(N)nccn32)C1 [Linsitinib] (partner 1 µM)
Outline: (§1)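 Relative viability equals treated-well nuclei counts divided by vehicle-well nuclei counts. Counts came from 4× images of lung cancer cell lines grown in 1536-well plates for 5 days after pin-tool dosing on the day after seeding. Dosing used one drug alone or a fixed anchor-drug dose plus five library-drug doses (not always all listed) in √10 steps, and values are medians of duplicate plates.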

[2] = compound: C[C@@H](N)c1ccc(C(=O)Nc2ccnc3[nH]ccc23)cc1 + CC1(C)CCC(c2ccc(Cl)cc2)=C(CN2CCN(c3ccc(C(=O)NS(=O)(=O)c4ccc(N[C@H](CCN5CCOCC5)CSc5ccccc5)c(S(=O)(=O)C(F)(F)F)c4)cc3)CC2)C1 [Navitoclax] (partner 0.5 µM)
Outline: as §1

Tanzisertib + Foretinib = compound: O[C@H]1CC[C@H](Nc2ncc3nc(Nc4c(F)cc(F)cc4F)n([C@H]4CCOC4)c3n2)CC1 [Tanzisertib] + COc1cc2c(Oc3ccc(NC(=O)C4(C(=O)Nc5ccc(F)cc5)CC4)cc3F)ccnc2cc1OCCCN1CCOCC1 [Foretinib] (partner 0.25 µM)
Outline: as §1

Tanzisertib + Alpelisib = compound: O[C@H]1CC[C@H](Nc2ncc3nc(Nc4c(F)cc(F)cc4F)n([C@H]4CCOC4)c3n2)CC1 [Tanzisertib] + Cc1nc(NC(=O)N2CCC[C@H]2C(N)=O)sc1-c1ccnc(C(C)(C)C(F)(F)F)c1 [Alpelisib] (partner 2 µM)
Outline: as §1

| Cell Line | relative viability ([1]; first compound 0.08 µM) | relative viability ([1]; first compound 0.8 µM) | relative viability ([1]; first compound 2.53 µM) | relative viability ([1]; first compound 8 µM) | relative viability ([2]; first compound 0.04 µM) | relative viability ([2]; first compound 0.1265 µM) | relative viability ([2]; first compound 0.4 µM) | relative viability ([2]; first compound 1.265 µM) | relative viability ([2]; first compound 4 µM) | relative viability (Tanzisertib + Foretinib; first compound 0.08 µM) | relative viability (Tanzisertib + Foretinib; first compound 0.253 µM) | relative viability (Tanzisertib + Foretinib; first compound 0.8 µM) | relative viability (Tanzisertib + Foretinib; first compound 2.53 µM) | relative viability (Tanzisertib + Foretinib; first compound 8 µM) | relative viability (Tanzisertib + Alpelisib; first compound 0.08 µM) | relative viability (Tanzisertib + Alpelisib; first compound 0.253 µM) | relative viability (Tanzisertib + Alpelisib; first compound 0.8 µM) | relative viability (Tanzisertib + Alpelisib; first compound 2.53 µM) | relative viability (Tanzisertib + Alpelisib; first compound 8 µM) |
| --- | --- | --- | --- | --- | --- | --- | --- | --- | --- | --- | --- | --- | --- | --- | --- | --- | --- | --- | --- |
| SW 1573 | 0.815 | 0.786 | 0.902 | 0.952 | 1.14 | 0.927 | 1.12 | 0.774 | 0.426 | 0.73 | 0.92 | 0.898 | 0.933 | 0.819 | 0.823 | 0.656 | 0.735 | 0.81 | 0.578 |
| SK-MES-1 | 1.07 | 1.1 | 1.15 | 0.953 | 1.4 | 1.39 | 1.34 | 1.33 | 1.14 | 0.971 | 0.917 | 0.889 | 0.992 | 0.7 | 0.922 | 0.904 | 0.951 | 0.921 | 0.856 |
| NCI-H1755 | 1.01 | 0.966 | 0.969 | 0.916 | 1.04 | 0.985 | 0.962 | 0.933 | 0.622 | 0.913 | 0.931 | 0.882 | 0.891 | 0.878 | 1.05 | 0.897 | 0.918 | 0.84 | 0.852 |
| NCI-H2023 | 0.62 | 0.671 | 0.629 | 0.647 | 1.09 | 1.02 | 1.08 | 1.07 | 0.799 | 0.853 | 0.874 | 0.936 | 0.901 | 0.646 | 0.671 | 0.577 | 0.627 | 0.584 | 0.545 |
| LC-2-ad | 0.805 | 0.825 | 0.909 | 0.869 | 0.398 | 0.566 | 0.585 | 0.346 | 0.262 | 0.924 | 0.913 | 0.908 | 0.877 | 0.884 | 0.902 | 0.888 | 0.939 | 0.876 | 0.815 |
| NCI-H1666 | 0.758 | 0.748 | 0.862 | 0.814 | 1.05 | 1.21 | 1.09 | 1.19 | 1.17 | 0.957 | 0.96 | 0.978 | 1.01 | 0.976 | 0.935 | 1.01 | 1.06 | 1.1 | 1.01 |
| EBC-1 | 0.899 | 0.938 | 1.09 | 0.949 | 0.414 | 0.406 | 0.379 | 0.377 | 0.347 | 0.102 | 0.093 | 0.104 | 0.117 | 0.109 | 0.999 | 0.789 | 0.829 | 0.792 | 0.697 |
| 201T | 1.02 | 1.01 | 0.996 | 1.04 | 1.15 | 1.1 | 1.16 | 1.2 | 1.37 | 1.2 | 1.08 | 1.12 | 1.11 | 0.978 | 1.03 | 1.04 | 1.01 | 0.993 | 1.01 |
| NCI-H2009 | 1.2 | 1.18 | 1.25 | 1.22 | 1.03 | 1.13 | 1.05 | 1.01 | 0.801 | 1.21 | 1.19 | 1.24 | 1.27 | 1.03 | 1.24 | 1.2 | 1.14 | 1.19 | 1.17 |
| NCI-H1395 | 1.02 | 0.886 | 1.24 | 0.977 | 1.04 | 1.32 | 1.11 | – | 0.876 | 1.06 | 0.941 | 0.96 | 0.945 | 0.966 | 1.11 | 1.14 | 1.04 | 1.04 | 0.983 |
| NCI-H2228 | 0.734 | 0.869 | 0.503 | 0.811 | 0.897 | 1.08 | 1.03 | 0.985 | 0.963 | 0.961 | 0.869 | 0.928 | 0.733 | 0.68 | 0.934 | 0.67 | 0.806 | 0.737 | 0.539 |
| LU99A | 0.53 | 0.579 | 0.551 | 0.513 | 0.834 | 0.851 | 0.967 | 0.839 | 0.798 | 0.828 | 0.81 | 0.798 | 0.765 | 0.837 | 0.549 | 0.519 | 0.521 | 0.503 | 0.456 |
| NCI-H1437 | 0.986 | 1.03 | 1.16 | 1.05 | 1.11 | 1.06 | 1.15 | 1.1 | 0.993 | 1.26 | 1.31 | 1.32 | 1.42 | 1.29 | 0.998 | 1 | 0.964 | 0.958 | 0.722 |
| EKVX | 1.06 | 0.865 | 1.13 | 0.984 | 0.914 | 1.15 | 1.32 | 1.07 | 0.807 | 1.08 | 0.681 | 0.759 | 0.872 | 0.497 | 0.72 | 0.846 | 0.952 | 0.832 | 0.685 |
| IA-LM | 0.717 | 0.893 | 0.958 | 0.621 | 0.799 | 0.93 | 0.929 | 1.03 | 0.989 | 1.02 | 1.28 | 1.04 | 1.28 | 1.09 | 0.908 | 0.802 | 0.83 | 0.85 | 0.956 |
| NCI-H520 | 0.883 | 1.04 | 0.867 | 0.912 | 1.03 | 1.01 | 1.05 | 1.14 | 1.14 | 0.792 | 0.734 | 0.83 | 0.753 | 0.757 | 0.958 | 0.886 | 1.07 | 0.937 | 0.927 |
| NCI-H1703 | 0.79 | 0.858 | 0.928 | 0.852 | 1.28 | 1.11 | 1.06 | – | 0.616 | 0.406 | 0.371 | 0.359 | 0.262 | 0.261 | 0.409 | 0.251 | 0.328 | 0.309 | 0.303 |
| LCLC-97TM1 | 0.142 | 0.183 | 0.201 | 0.211 | 0.405 | 0.507 | 0.44 | 0.786 | 0.836 | 0.928 | 0.945 | 0.89 | 0.854 | 0.946 | – | 0.276 | 0.271 | 0.238 | 0.292 |
| NCI-H1793 | 0.67 | 0.669 | 0.922 | 0.876 | 0.415 | 0.421 | 0.409 | – | 0.501 | 0.659 | 0.74 | 0.734 | 0.569 | 0.547 | 0.842 | 0.532 | 0.754 | 0.754 | 0.733 |
| NCI-H3122 | 0.981 | 0.981 | 1.06 | 1.04 | 1.05 | 1.01 | 0.981 | 0.976 | 0.989 | 1.1 | 0.951 | 1.03 | 0.99 | 1.01 | 0.965 | 0.735 | 0.844 | 0.731 | 0.782 |
| PC-14 | 0.997 | 0.992 | 1.03 | 0.941 | 0.963 | 1.04 | 0.984 | 0.935 | 0.808 | 1.05 | 0.983 | 0.933 | 0.951 | 0.61 | 0.942 | 0.947 | 0.943 | 0.873 | 0.57 |
| EPLC-272H | 1.15 | 1.15 | 1.22 | 1.17 | 1.14 | 1.26 | 1.26 | – | 0.975 | 0.737 | 0.692 | 0.714 | 0.65 | 0.666 | 0.998 | 0.942 | 0.951 | 1.01 | 0.971 |
| A-427 | 1.09 | 1.09 | 1.15 | 1.07 | 1.02 | 0.992 | 0.993 | – | 0.855 | 1.18 | 1.05 | 1.02 | 0.939 | 1.04 | 1.11 | 1.11 | 1.06 | 1.06 | 0.96 |
